# “Also recorded” adds a separate entry of the source.
# Key:
# Format in all cases: cell-based, human
# MCF-7 cells [1] = assay: MTT cell viability assay, MCF-7 cells
# MDA-MB-231 cells = assay: MTT cell viability assay, MDA-MB-231 cells; conditions: for cell survival: MDA-MB-231 cells, 100 µM, 48 h, MTT
# MCF-7 cells [2] = assay: Microscopic analysis of cell morphology, MCF-7 cells; conditions: 48 h treatment; for cell morphology / cell death under the microscope: 10× magnification
Structure (SMILES),"IC50 (MCF-7 cells [1]; Homo sapiens, MCF7)","cell survival (MCF-7 cells [1]; MCF-7 cells, 100 µM, 48 h, MTT)","IC50 (MDA-MB-231 cells; Homo sapiens, MDA-MB-231)",cell survival (MDA-MB-231 cells),breast cancer cell inhibitory activity as concluded from microscopy (MCF-7 cells [2]),cell morphology / cell death under the microscope (MCF-7 cells [2])
CCOC(=O)C1=C(COCc2cn(CCN3C(=O)C(=O)c4ccccc43)nn2)N=C2SC=CN2C1c1cccc(Cl)c1 (centres unmarked) [Compound 14a],81.9 ± 2.26 µM,~52%,42.3 ± 0.83 µM,58%,highest breast cancer cell inhibitory activity,mostly dead
CCOC(=O)C1=C(COCc2cn(CCN3C(=O)C(=O)c4cc(Cl)ccc43)nn2)N=C2SC=CN2C1c1cccc(Cl)c1 (centres unmarked) [Compound 14c],–,–,–,–,highest breast cancer cell inhibitory activity,significant changes in their morphology; also recorded: mostly dead
CCOC(=O)C1=C(COCc2cn(CCN3C(=O)C(=O)c4cc(F)ccc43)nn2)N=C2SC=CN2C1c1cccc(Cl)c1 (centres unmarked) [Compound 14d],–,–,–,–,not showing breast cancer cell growth inhibition,significant changes in their morphology
CCOC(=O)C1=C(COCc2cn(C3OC(COC(C)=O)C(OC(C)=O)C(OC(C)=O)C3OC(C)=O)nn2)N=C2SC=CN2C1c1cccc(Cl)c1 (centres unmarked) [Compound 15],–,–,–,–,highest breast cancer cell inhibitory activity,mostly dead
"CC/C(=C(\c1ccccc1)c1ccc(OCCN(C)C)cc1)c1ccccc1 [Tamoxifen, tamoxifen, reference compound]",–,–,–,63%,–,significant changes in their morphology; also recorded: mostly dead

# From paper PMC12699471 (RSC Advances, 2025)
